Measurements: patent publication US10149887B2, “Peptides and peptidomimetics in combination with t cell activating and/or checkpoint inhibiting agents for cancer treatment” (CanBas Co., Ltd., priority 2015, dated 2018)
Read-outs that look alike come from different tables or passages of the source. Square brackets hold non-standard residues; d marks the D form. Ends that are not written are not given here. Peptide text beside a SMILES is read from it. Phe(F5) = N[C@@H](Cc1c(F)c(F)c(F)c(F)c1F)C(=O)O; dPhe(F5) = N[C@H](Cc1c(F)c(F)c(F)c(F)c1F)C(=O)O; dBpa = N[C@H](Cc1ccc(C(=O)c2ccccc2)cc1)C(=O)O; Cha = N[C@@H](CC1CCCCC1)C(=O)O; dCha = N[C@H](CC1CCCCC1)C(=O)O; Aun = NCCCCCCCCCCC(=O)O

Tests used:
[1] = tested on: Jurkat cells; experiment: Side effect of peptide used alone: Jurkat cell cycle disturbance (flow cytometry); format: cell-based
Experimental: Cell-cycle analysis The cell cycle status of the cells treated with bleomycin or adriamcin were analyzed by flow cytometry as described by Kawabe (1997) Nature 385:454-458. In brief, two million cells were re-suspended and incubated in 200 μl Krishan's solution (0.1% Sodium citrate, 50 μg/ml PI, 20 μg/ml RNase A and 0.5% NP-40) for 1 hr at 4° C. and analyzed by a flow cytometry, FACScan™ (Beckton Dickinson, Mountain View, Calif.) with the program CELLQuest™ (Beckton Dickinson).
(§1) The “Appearance of side effect when used alone” indicates the peptide/peptidomimetic dose that produced Jurkat cell cycle disturbance, i.e., the appearance of significant amounts of SubG1 cells (dead cells) or cells in which the DNA content of each varies more than usual. […] The “G2 abrogating dose” indicates the peptide/peptidomimetic dose with 40 μg/ml bleomycine that produced detectable G2 checkpoint abrogation activity following treatment for 24 hours. The “Appearance of side effect when used with colchicine” indicates the peptide/peptidomimetic dose with 5 μg/ml colchicine that produced Jurkat cell cycle disturbance following treatment for 24 hours.

[2] = tested on: Jurkat cells; experiment: G2 checkpoint abrogation, flow cytometry of bleomycin treated Jurkat cells; format: cell-based, human; conditions: Jurkat cells with bleomycin 40 μg/ml
Experimental: Flow cytometry analysis of G2 checkpoint abrogation was performed using human leukemia derived Jurkat cell line. In brief, cultured cells were treated with various doses of peptide/peptidomimetic and 40 μg/ml bleomycine for 24 hr. The DNA of the cells was stained with propidium iodide and analyzed by flow cytometry.
The G2 checkpoint abrogating activity of various arginine rich sequences at different doses on cells treated with bleomycine was studied. Briefly, peptides were added to culture medium of Jurkat cells with bleomycin (40 μg/ml) at 0.2 μg/ml, 0.39 μg/ml, 0.78 μg/ml, 1.56 μg/ml, 3.125 μg/ml, 6.25 μg/ml, 12.5 μg/ml, 25 μg/ml and 50 μg/ml. Cells were subsequently harvested after 24 hours, stained with Krishan's solution, and analyzed with flow cytometry as previously described.

[3] = tested on: Jurkat cells; experiment: M phase checkpoint abrogation / non specific toxicity, colchicine treated Jurkat cells; format: cell-based; conditions: dose with 5 μg/ml colchicine that produced Jurkat cell cycle disturbance, 24 hours
Experimental: Flow cytometry analysis of M phase checkpoint abrogation by the compounds was performed using human T cell leukemia Jurkat cell line treated with colchicine (5 μg/ml or 0.5 μg/ml) and various doses of peptide/peptidomimetics for 24 hr (FIG. 12). The DNA of the cells was stained and analyzed by flow cytometry as described above.
as §1
A comparison between G2 checkpoint abrogating activity and non specific toxicity (M checkpoint abrogation) by CB501 was performed. In brief, Jurkat cells were treated with 40 μg/ml bleomycin or 0.5 μg/ml colchicine for G2 checkpoint abrogating activity and non specific toxicity, respectively. The DNA amount in each of the treated cells was analyzed by flow cytometry, as previously described.

[4] = dose that produced Jurkat cell cycle disturbance, peptide alone

Compound | Appearance of side effect when used alone [1] [µM] | G2 checkpoint abrogating activity (in words) [2] | Appearance of side effect when used alone [1, 4] [µM] | Appearance of side effect when used with Colchicine [3] [µM]
N=C(N)NCCC[C@H](NC(=O)[C@H](CCCNC(=N)N)NC(=O)[C@@H](N)CCCNC(=N)N)C(=O)N[C@@H](CC1CCCCC1)C(=O)N[C@@H](Cc1c(F)c(F)c(F)c(F)c1F)C(=O)N[C@@H](CCCNC(=N)N)C(=O)N[C@@H](CO)C(=O)N1CCC[C@H]1C(=O)N[C@@H](CO)C(=O)N[C@@H](Cc1ccc(O)cc1)C(=O)N[C@@H](Cc1ccc(O)cc1)C(=O)O [CBP430, (1-Arg)(1-Arg)(1-Arg)(1-Cha)(1-Phe-2,3,4,5,6-F)(1-Arg)(1-Ser)(1-Pro)(1-Ser)(1-Tyr)(1-Tyr)] (H-RRR[Cha][Phe(F5)]RSPSYY-OH; N-terminus and C-terminus assumed) | >50 |  |  | 
(d-Arg)(d-Arg)(d-Arg)(d-Bpa)(d-Arg)(d-Trp)(d-Arg)(d-Phe-2,3,4,5,6-F)(d-Cha) ([dR][dR][dR][dBpa][dR][dW][dR][dPhe(F5)][dCha]) [CBP701] |  | retain G2 checkpoint abrogating activity comparable to other peptides having significant G2 checkpoint abrogating activity |  | 
N=C(N)NCCC[C@@H](NC(=O)[C@@H](CCCCN)NC(=O)[C@@H](CCCCN)NC(=O)[C@@H](CCCNC(=N)N)NC(=O)[C@@H](CCCNC(=N)N)NC(=O)[C@@H](CCC(N)=O)NC(=O)[C@@H](CCCNC(=N)N)NC(=O)[C@@H](CCCNC(=N)N)NC(=O)[C@@H](CCCNC(=N)N)NC(=O)[C@@H](CC1CCCCC1)NC(=O)[C@@H](Cc1c(F)c(F)c(F)c(F)c1F)NC(=O)CCCCCCCCCCNC(=O)[C@H](Cc1ccc(O)cc1)NC(=O)[C@@H](N)Cc1ccc(O)cc1)C(=O)NCC(=O)N[C@H](Cc1ccc(O)cc1)C(=O)O [CBP460, (1-Tyr)(1-Tyr)(1-aminoundecanoic acid)(d-Phe-2,3,4,5,6-F)(d-Cha)(d-Arg)(d-Arg)(d-Arg)(d-Gln)(d-Arg)(d-Arg)(d-Lys)(d-Lys)(d-Arg)(1-Gly)(d-Tyr)] (H-YY[Aun][dPhe(F5)][dCha][dR][dR][dR][dQ][dR][dR][dK][dK][dR]G[dY]-OH; N-terminus and C-terminus assumed) |  |  | >3.125 | >3.125
N=C(N)NCCC[C@H](NC(=O)CNC(=O)[C@@H](N)Cc1ccc(O)cc1)C(=O)N[C@@H](CCCCN)C(=O)N[C@@H](CCCCN)C(=O)N[C@@H](CCCNC(=N)N)C(=O)N[C@@H](CCCNC(=N)N)C(=O)N[C@@H](CCC(N)=O)C(=O)N[C@@H](CCCNC(=N)N)C(=O)N[C@@H](CCCNC(=N)N)C(=O)N[C@@H](CCCNC(=N)N)C(=O)N[C@@H](CC1CCCCC1)C(=O)N[C@@H](Cc1c(F)c(F)c(F)c(F)c1F)C(=O)N[C@@H](CCCNC(=N)N)C(=O)N[C@@H](CO)C(=O)N1CCC[C@H]1C(=O)N[C@@H](CO)C(=O)N[C@@H](Cc1ccc(O)cc1)C(=O)O [CBP420, (1-Tyr)(1-Gly)(1-Arg)(1-Lys)(1-Lys)(1-Arg)(1-Arg)(1-Gln)(1-Arg)(1-Arg)(1-Arg)(1-Cha)(1-Phe-2,3,4,5,6-F)(1-Arg)(1-Ser)(1-Pro)(1-Ser)(1-Tyr)] |  |  | >50 | ≥50
N=C(N)NCCC[C@H](NC(=O)CNC(=O)[C@@H](N)Cc1ccc(O)cc1)C(=O)N[C@@H](CCCCN)C(=O)N[C@@H](CCCCN)C(=O)N[C@@H](CCCNC(=N)N)C(=O)N[C@@H](CCCNC(=N)N)C(=O)N[C@@H](CCC(N)=O)C(=O)N[C@@H](CCCNC(=N)N)C(=O)N[C@@H](CCCNC(=N)N)C(=O)N[C@@H](CCCNC(=N)N)C(=O)N[C@@H](CC1CCCCC1)C(=O)N[C@@H](Cc1c(F)c(F)c(F)c(F)c1F)C(=O)NCCCCCCCCCCC(=O)N[C@@H](Cc1ccc(O)cc1)C(=O)N[C@@H](Cc1ccc(O)cc1)C(=O)O [CBP440, (1-Tyr)(1-Gly)(1-Arg)(1-Lys)(1-Lys)(1-Arg)(1-Arg)(1-Gln)(1-Arg)(1-Arg)(1-Arg)(1-Cha)(1-Phe-2,3,4,5,6-F)(1-aminoundecanoic acid)(1-Tyr)(1-Tyr)] |  |  | >12.5 | >3.125
N=C(N)NCCC[C@@H](NC(=O)[C@@H](CCCNC(=N)N)NC(=O)[C@@H](CCC(N)=O)NC(=O)[C@@H](CCCNC(=N)N)NC(=O)[C@@H](CCCNC(=N)N)NC(=O)[C@@H](CCCNC(=N)N)NC(=O)[C@@H](CC1CCCCC1)NC(=O)[C@@H](Cc1c(F)c(F)c(F)c(F)c1F)NC(=O)[C@@H](CO)NC(=O)[C@@H](Cc1c[nH]c2ccccc12)NC(=O)[C@@H](CO)NC(=O)[C@@H](CO)NC(=O)[C@H](N)Cc1ccc(O)cc1)C(=O)O [CBP481, (d-Tyr)(d-Ser)(d-Ser)(d-Trp)(d-Ser)(d-Phe-2,3,4,5,6-F)(d-Cha)(d-Arg)(d-Arg)(d-Arg)(d-Gln)(d-Arg)(d-Arg)] (H-[dY][dS][dS][dW][dS][dPhe(F5)][dCha][dR][dR][dR][dQ][dR][dR]-OH; N-terminus and C-terminus assumed) | >50 |  |  | 
NCCCCCCCCCCC(=O)N[C@H](Cc1c(F)c(F)c(F)c(F)c1F)C(=O)N[C@H](CC1CCCCC1)C(=O)O [CBP464, (1-aminoundecanoic acid)(d-Phe-2,3,4,5,6-F)(d-Cha)] (H-[Aun]-[dPhe(F5)]-[dCha]-OH; N-terminus and C-terminus assumed) | >50 |  |  | 
N=C(N)NCCC[C@@H](NC(=O)[C@@H](CCCCN)NC(=O)[C@@H](CCCCN)NC(=O)[C@@H](CCCNC(=N)N)NC(=O)[C@@H](CCCNC(=N)N)NC(=O)[C@@H](CCC(N)=O)NC(=O)[C@@H](CCCNC(=N)N)NC(=O)[C@@H](CCCNC(=N)N)NC(=O)[C@@H](CCCNC(=N)N)NC(=O)[C@@H](CC1CCCCC1)NC(=O)[C@@H](Cc1c(F)c(F)c(F)c(F)c1F)NC(=O)CCCCCCCCCCNC(=O)[C@@H](N)Cc1ccc(O)cc1)C(=O)NCC(=O)N[C@H](Cc1ccc(O)cc1)C(=O)O [CBP461, (1-Tyr)(1-aminoundecanoic acid)(d-Phe-2,3,4,5,6-F)(d-Cha)(d-Arg)(d-Arg)(d-Arg)(d-Gln)(d-Arg)(d-Arg)(d-Lys)(d-Lys)(d-Arg)(1-Gly)(d-Tyr)] (H-Y[Aun][dPhe(F5)][dCha][dR][dR][dR][dQ][dR][dR][dK][dK][dR]G[dY]-OH; N-terminus and C-terminus assumed) |  |  | >6.25 | >6.25
N=C(N)NCCC[C@H](NC(=O)[C@H](CCCNC(=N)N)NC(=O)[C@H](CCCNC(=N)N)NC(=O)[C@H](CCC(N)=O)NC(=O)[C@H](CCCNC(=N)N)NC(=O)[C@@H](N)CCCNC(=N)N)C(=O)N[C@@H](CC1CCCCC1)C(=O)N[C@@H](Cc1c(F)c(F)c(F)c(F)c1F)C(=O)N[C@@H](CCCNC(=N)N)C(=O)N[C@@H](CO)C(=O)N1CCC[C@H]1C(=O)N[C@@H](CO)C(=O)N[C@@H](Cc1ccc(O)cc1)C(=O)N[C@@H](Cc1ccc(O)cc1)C(=O)O [CBP431, (1-Arg)(1-Arg)(1-Gln)(1-Arg)(1-Arg)(1-Arg)(1-Cha)(1-Phe-2,3,4,5,6-F)(1-Arg)(1-Ser)(1-Pro)(1-Ser)(1-Tyr)(1-Tyr)] (H-RRQRRR[Cha][Phe(F5)]RSPSYY-OH; N-terminus and C-terminus assumed) | >50 |  |  | 
N[C@H](Cc1c(F)c(F)c(F)c(F)c1F)C(=O)N[C@H](CC1CCCCC1)C(=O)O [CBP470, (d-Phe-2,3,4,5,6-F)(d-Cha)] (H-[dPhe(F5)]-[dCha]-OH; N-terminus and C-terminus assumed) | >50 |  |  | 
N[C@@H](Cc1ccc(O)cc1)C(=O)NCCCCCCCCCCC(=O)N[C@H](Cc1c(F)c(F)c(F)c(F)c1F)C(=O)N[C@H](CC1CCCCC1)C(=O)O [CBP462, (1-Tyr)(1-aminoundecanoic acid)(d-Phe-2,3,4,5,6-F)(d-Cha)] (H-Y[Aun][dPhe(F5)][dCha]-OH; N-terminus and C-terminus assumed) | >50 |  |  | 
N=C(N)NCCC[C@@H](NC(=O)[C@@H](CCCCN)NC(=O)[C@@H](CCCCN)NC(=O)[C@@H](CCCNC(=N)N)NC(=O)[C@@H](CCCNC(=N)N)NC(=O)[C@@H](CCC(N)=O)NC(=O)[C@@H](CCCNC(=N)N)NC(=O)[C@@H](CCCNC(=N)N)NC(=O)[C@@H](CCCNC(=N)N)NC(=O)[C@@H](CC1CCCCC1)NC(=O)[C@@H](Cc1c(F)c(F)c(F)c(F)c1F)NC(=O)CCCCCCCCCCN)C(=O)NCC(=O)N[C@H](Cc1ccc(O)cc1)C(=O)O [CBP463, (1-aminoundecanoic acid)(d-Phe-2,3,4,5,6-F)(d-Cha)(d-Arg)(d-Arg)(d-Arg)(d-Gln)(d-Arg)(d-Arg)(d-Lys)(d-Lys)(d-Arg)(1-Gly)(d-Tyr)] (H-[Aun][dPhe(F5)][dCha][dR][dR][dR][dQ][dR][dR][dK][dK][dR]G[dY]-OH; N-terminus and C-terminus assumed) |  |  | >6.25 | >6.25
